Among the data in US10815246B2, “Thailanstatin analogs” (priority 2017, dated 2020) are IC50 values, retold here.

SMILES strings stand for the structures. Where two headings read alike, the source gives them in different places.

What all share (assay type): cell-based
Assay [1] concerns PANC 10.05. The experiment in a line: In vitro cytotoxicity on pancreatic cancer cell line (Example 12). The following applies: PANC 10.05 human pancreatic cancer cell line.
The test system of assay [2] is N87. Put plainly: In vitro cytotoxicity of toxin compounds, CellTiter-Glo, three days (Example 12). To be noted: 72 h. On the procedure: (§1) Various cancer cell lines were obtained from the American Type Culture Collection (ATCC®). The cells were cultured in a humidified 5% CO2 incubator in a media consisting of RPMI 1640, L-glutamine, and 10% FBS. The cells were passaged as needed using standard tissue culture techniques. The cells were harvested and plated out into 96-well tissue culture treated plates at a density of 5000 cells per well. After allowing the cells to equilibrate for ˜24 hr in a humidified 5% CO2 incubator, the cells were treated with the test compounds at the indicated concentrations. The cells were exposed to the test compounds for three days with no media change. After the treatment period, CellTiter-Glo® Luminescent Cell Viability Assay reagent solution (Promega, Inc., Madison, Wis.; Cat. # G7573) was introduced to each well. The Cell TiterGlo-containing plates were then read on a SpectroMax® iD3 Multi-Mode Microplate reader (Molecular Devices, LLC, San Jose, Calif.). The degree of luminescence was dictated by the abundance of live cells.
(§2) The following tables summarize the cytotoxicity (IC50), nM, observed for the specified toxin compounds on the indicated cancer cell lines, NCI-H23, DU145, SW480, SKOV3, A549, HT29, SK-MES-1, SKBR3, HCT116, MCF7, N87, and A431 (ATCC designations).
A general note: Cellular ATP, detected with luciferase, serves as a proxy for viable cell number.

The test system of assay [3] is SW480. The description is as above. The following applies: Homo sapiens, 72 h. On the procedure: as §1, §2
The test system of assay [4] is SKOV3. The description is as above. To be noted: Homo sapiens, SK-OV-3, 72 h. Here is the method: as §1, §2
Assay [5] relates to SKBR3. The assay is described as above. The following applies: Homo sapiens, SK-BR-3, 72 h. On the procedure: as §1, §2
In assay [6] the test system is HCT116. Described as above. The following applies: Homo sapiens, HCT-116, 72 h. On the procedure:
as §1, §2

The subject of assay [7] is HT29. The description is as above. To be noted: Homo sapiens, HT-29, 72 h. On the procedure:
as §1, §2

The test system of assay [8] is A549. Described as above. To be noted: Homo sapiens, 72 h. On the procedure: as §1, §2
For assay [9], the system named is MCF7. The assay is described as above. The following applies: Homo sapiens, 72 h. On the procedure: as §1, §2
Assay [10] relates to A431. Described as above. The following applies: Homo sapiens, A-431, 72 h. Here is the method:
as §1, §2

Assay [11] relates to DU145. The description is as above. To be noted: Homo sapiens, DU-145, 72 h. Here is the method:
as §1, §2

In assay [12] the test system is SK-MES-1. The description is as above. The following applies: Homo sapiens, 72 h; SK-MES-1, three days. On the procedure: as §1, §2
Assay [13] has as its system NCI-H23. Described as above. To be noted: Homo sapiens, 72 h. On the procedure: as §1, §2
Assay [14] relates to PANC 05.04. The experiment in a line: In vitro cytotoxicity on pancreatic cancer cell line (Example 12). To be noted: PANC 05.04 human pancreatic cancer cell line.
In assay [15] the test system is HCT 116 cells. The experiment in a line: In vitro cytotoxicity, CellTiter-Glo, 72 h (Example 11). Here is the method:
Alternatively, the in vitro cytotoxicity of the compounds of the invention may be measured as described in this example. 180 μl of HCT 116 cells (ATCC, Cat # CCL-247) in McCoy's 5a Medium Modified (Sigma-Aldrich®, St. Louis, Mo.)+10% fetal bovine serum were seeded at a density of 5,000 cells/well in a white opaque 96-well plate and incubated for 24 hours at […] in a 5% CO2 incubator. Twenty-four hours post cell seeding, 20 μl of 100× test compounds were diluted such that the final concentrations of the test compounds were in μM concentration. Half log dilutions were used, starting from 10 μM through 0.0001 μM. Puromycin and […]. The cells were incubated with the compounds for 72 hours at […] in a 5% CO2 incubator. After 72 hrs, 100 μl/well of CellTiter-Glo® Luminescent Cell Viability Assay reagent (Promega, Inc., Madison, Wis.; Cat. # G7573) was added to the plates and incubated at room temperature for 30 minutes. The luminescence signals were captured using EnVision 2105 Multimode Plate Reader (PerkinElmer, Waltham, Mass.). The data were analyzed using non-linear regression curve fit (sigmoidal dose response) in GraphPad Prism software (GraphPad Software, La Jolla, Calif.) by plotting the concentration of drug on the X-axis and the mean % inhibition values on the Y-axis.

For assay [16], the system named is HEL-92.1.7. The experiment in a line: In vitro cytotoxicity of toxin compounds (Example 12, Table 4). To be noted: Homo sapiens. Here is the method: as §1
(§3) Table 4 gives the cytotoxicity data for Compounds 2, 4, and 6 on the indicated cancer cell lines, HL60, KG-1, NCI-H69, SK-MEL-1, HEL-92.1.7, and K562 (ATCC designations).

Assay [17] concerns SK-MEL-1. Described as above. To be noted: Homo sapiens. Here is the method:
as §1, §3

Assay [18] deals with K562. The description is as above. To be noted: Homo sapiens. Here is the method:
as §1, §3

Assay [19] concerns HL60. The assay is described as above. The following applies: Homo sapiens, HL-60. Here is the method: as §1, §3
For assay [20], the system named is NCI-H69. The assay is described as above. The following applies: Homo sapiens. On the procedure:
as §1, §3

`COC(=O)C[C@@H]1C[C@@]2(CO2)[C@H](O)[C@@H](/C=C/C(C)=C/C[C@@H]2O[C@H](C)[C@H](NC(=O)/C=C\C(C)OC(=O)c3ccc(F)cc3)C[C@@H]2C)O1` (stereo partly drawn) [Compound 2, (Z)-5-((2R, 3R, 5S, 6S)-6-((2E, 4E)-5-((3R, 4R, 5R, 7S)-4-hydroxy-7-(2-methoxy-2-oxoethyl)-1,6-dioxaspiro[2.5]octan-5-yl)-3-methylpenta-2,4-dienyl)-2,5-dimethyltetrahydro-2H-pyran-3-ylamino)-5-oxopent-3-en-2-yl 4-fluorobenzoate]: the half-inhibitory concentration (IC50) (usually the concentration that gives 50% inhibition) turned out to be 21 nM in assay [1] (Panc1005); 14.9 nM in assay [2]; 20.2 nM in assay [3]; 57.2 nM in assay [4]; 166 nM in [5]; 8.9 nM in [6]. In addition, the IC50 amounted to 22.5 nM in assay [7]; 38.3 nM in assay [8]; 32.4 nM in [9]; 9.1 nM in assay [10]; 27.5 nM in assay [11]; 113 nM in assay [12]. The IC50 in [13] is 1.3 nM; in assay [14], 2 nM; in [15] (Homo sapiens, HCT-116, 72 h) it was 7 nM; in [16], 0.71 nM; in [17], 3.26 nM; in assay [18], 0.58 nM. Moreover, the IC50 in assay [19] worked out at 0.08 nM; in [20] it was 0.96 nM.
With `COC(=O)C[C@@H]1C[C@@]2(CO2)[C@H](O)[C@@H](/C=C/C(C)=C/C[C@@H]2O[C@H](C)[C@H](NC(=O)/C=C\C(C)c3cc(OC)no3)C[C@@H]2C)O1` (stereo partly drawn) [Compound 5, Methyl 2-((3R, 5S, 7R, 8R)-8-hydroxy-7-((1E, 3E)-5-((2S, 3S, 5R, 6R)-5-((Z)-4-(3-methoxyisoxazol-5-yl)pent-2-enamido)-3,6-dimethyltetrahydro-2H-pyran-2-yl)-3-methylpenta-1,3-dienyl)-1,6-dioxaspiro[2.5]octan-5-yl)acetate], the IC50 in assay [1] was determined as 19.9 nM; in assay [14], 12 nM; in assay [15] (HCT 116 cells, 72 hours, read-out: IC50), 310 nM.
On to `COC(=O)C[C@@H]1C[C@@]2(CO2)[C@H](O)[C@@H](/C=C/C(C)=C/C[C@@H]2O[C@H](C)[C@H](NC(=O)/C=C\C(C)COC3(C)COC3)C[C@@H]2C)O1` (stereo partly drawn) [Compound 7, Methyl 2-((3R, 5S, 7R, 8R)-7-((1E, 3E)-5-((2S, 3S, 5R, 6R)-3,6-dimethyl-5-((Z)-4-methyl-5-((3-methyloxetan-3-yl)oxy)pent-2-enamido)tetrahydro-2H-pyran-2-yl)-3-methylpenta-1,3-dien-1-yl)-8-hydroxy-1,6-dioxaspiro[2.5]octan-5-yl)acetate], for which the IC50 in assay [1] (Panc1005) worked out at 98.4 nM; in assay [14], 22 nM; in [15] (Homo sapiens, HCT-116, 72 h), 300 nM.
For the molecule `COC(=O)C[C@@H]1C[C@@]2(CO2)[C@H](O)[C@@H](/C=C/C(C)=C/C[C@@H]2O[C@H](C)[C@H](NC(=O)/C=C\C(C)c3ccon3)C[C@@H]2C)O1` (stereo partly drawn) [Compound 4, Methyl 2-((3R, 5S, 7R, 8R)-8-hydroxy-7-((1E, 3E)-5-((2S,3S,5R,6R)-5-((Z)-4-(isoxazol-3-yl)pent-2-enamido)-3,6-dimethyltetrahydro-2H-pyran-2-yl)-3-methylpenta-1,3-dien-1-yl)-1,6-dioxaspiro[2.5]octan-5-yl)acetate], the half-maximal inhibitory concentration (IC50) in [1] (Panc1005) is 7.19 nM; in assay [2] it was 1.6 nM; in [3], 2.2 nM; in assay [4], 6.7 nM; in assay [5], 9.5 nM; in assay [6], 1 nM. Moreover, the IC50 in assay [7] came out at 1.3 nM; in assay [8], 2.8 nM; in [9] it was 2.1 nM; in [10] it was 0.7 nM; in assay [11], 1.9 nM; in assay [12], 7.5 nM. For the same molecule, the IC50 in assay [13] was 0.2 nM; in assay [14], 4 nM; in assay [15] (Homo sapiens, HCT-116, 72 h) it was 330 nM; in assay [17] it was 0.42 nM; in assay [18] it was 0.11 nM; in [19], 0.05 nM. Further, in [20], the IC50 turned out to be 0.63 nM.
Take `COC(=O)C[C@@H]1C[C@@]2(CO2)[C@H](O)[C@@H](/C=C/C(C)=C/C[C@@H]2O[C@H](C)[C@H](NC(=O)/C=C\C(C)n3nc(C)nc3C)C[C@@H]2C)O1` (stereo partly drawn) [Compound 3, Methyl 2-((3R, 5S, 7R, 8R)-7-((1E, 3E)-5-((2S, 3S, 5R, 6R)-5-((Z)-4-(3,5-dimethyl-1H-1,2,4-triazol-1-yl)pent-2-enamido)-3,6-dimethyltetrahydro-2H-pyran-2-yl)-3-methylpenta-1,3-dienyl)-8-hydroxy-1,6-dioxaspiro[2.5]octan-5-yl)acetate]: the IC50 in assay [1] (Panc1005) is above 2000 nM; in [14] it was 435 nM; in assay [15] (Homo sapiens, HCT-116, 72 h) it was 390 nM.
With `COC(=O)C[C@@H]1C[C@@]2(CO2)[C@H](O)[C@@H](/C=C/C(C)=C/C[C@@H]2O[C@H](C)[C@H](NC(=O)/C=C\C(C)c3noc(C)n3)C[C@@H]2C)O1` (stereo partly drawn) [Compound 6, Methyl 2-((3R, 5S, 7R, 8R)-7-((1E, 3E)-5-((2S, 3S, 5R, 6R)-3,6-dimethyl-5-((Z)-4-(5-methyl-1,2,4-oxadiazol-3-yl)pent-2-enamido)tetrahydro-2H-pyran-2-yl)-3-methylpenta-1,3-dienyl)-8-hydroxy-1,6-dioxaspiro[2.5]octan-5-yl)acetate], the half-inhibitory concentration (IC50) was determined as 10.3 nM in assay [1] (Panc1005); 1.4 nM in [2]; 2.7 nM in assay [3]; 9.7 nM in [4]; 12.3 nM in [5]; 2 nM in assay [6]. The half-maximal inhibitory concentration (IC50) was 2.7 nM in assay [7]; 4.8 nM in assay [8]; 3.8 nM in assay [9]; 1.8 nM in [10]; 3.3 nM in assay [11]; 9.3 nM in assay [12]. The IC50 came to 0.4 nM in assay [13]; 7 nM in assay [14]; 20 nM in assay [15] (Homo sapiens, HCT-116, 72 h); 0.03 nM in assay [16]; 0.78 nM in [17]; 0.09 nM in assay [18]. Besides, the figures for the IC50 in assay [19] and in [20] were 0.04 nM and 0.21 nM, respectively.
Regarding `COC(=O)C[C@@H]1C[C@@]2(CO2)[C@H](O)[C@@H](/C=C/C(C)=C/C[C@@H]2O[C@H](C)[C@H](NC(=O)/C=C\C(C)OC(=O)c3ccccc3)C[C@@H]2C)O1` (stereo partly drawn) [Compound 1, (Z)-5-((2R, 3R, 5S, 6S)-6-((2E, 4E)-5-((3R, 4R, 5R, 7S)-4-hydroxy-7-(2-methoxy-2-oxoethyl)-1,6-dioxaspiro[2.5]octan-5-yl)-3-methylpenta-2,4-dienyl)-2,5-dimethyltetrahydro-2H-pyran-3-ylamino)-5-oxopent-3-en-2-yl benzoate], the IC50 worked out at 65 nM in [1] (Panc1005); 22 nM in assay [14]; 19 nM in assay [15] (Homo sapiens, HCT-116, 72 h).
For `COc1ccc(C[C@H](N)C(=O)N[C@H]2[C@@H](O)[C@H](n3cnc4c(N(C)C)ncnc43)O[C@@H]2CO)cc1` [Puromycin, reference compound], the IC50 in [15] (Homo sapiens, HCT 116 cells, 72 hours, read-out: IC50) was around 250 nM.
